target: T1, yeast HSP90 (Saccharomyces cerevisiae, UniProt P02829); test: Malachite green HSP90 ATPase assay; assay type: biochemical; conditions: ATPase IC50, activity range, ATPase assay
T1 construct: made in house; host or cells: E. coli
Description: Two methods have been developed to measure the intrinsic ATPase activity of HSP90, using yeast HSP90 as a model system. The first method utilises a regenerating coupled enzyme assay. The second assay, based on the use of malachite green for the measurement of inorganic phosphate, was designed for high throughput screening (HTS) to identify novel HSP90 inhibitor drug candidates.
Colorimetric assays for the determination of phosphate, based on the formation of a phosphomolybdate complex, can be carried out in a few steps with inexpensive reagents and are well suited to the automation required for high throughput screening (see, e.g., Cogan et al., 1999). Enzymes that release inorganic phosphate are assayed using the reaction of the cationic dye, malachite green, with the a complex formed by a reaction of the inorganic phosphate with molybdate to generate a blue-green colour with an absorbance maximum at 610 nm (see, e.g., Baykov et al., 1988; Harder et al., 1994; Maehama et al., 2000). The method has been used in both high throughput (see, e.g., Rumsfeld et al., 2000) and ultra-high throughput screening formats (see, e.g., Layery et al., 2001) for a variety of non-HSP90 ATPases. However, this method is complicated by the non-enzymatic hydrolysis of ATP in the presence of acidic malachite green reagent, causing an increase in colour (see, e.g., Chan et al., 1986; Henkel et al., 1988). This process is mediated by molybdate and can be overcome by the addition of sodium citrate immediately after the reagent (see, e.g., Lanzetta et al., 1979; Schirmer et al., 1998; Baginski et al., 1975). This modification has been adapted to the 96-well microtitre plate assay previously described for other ATPases (see, e.g., Lanzetta et al., 1979) to produce the following protocol for HSP90 ATPase, which is suitable for high throughput screening.
Chemicals are of the highest purity commercially available and all aqueous solutions are made up in AR water. Because of the need to minimise contamination with inorganic phosphate, precautions should be taken with solutions and apparatus used in the assays. Glassware and pH meters are rinsed with double distilled or deionised water before use and, wherever possible, plastic ware should be used. Gloves are worn for all procedures. • (1) Immulon 96-well (Thermo Labsystems, Basingstoke, UK) or Cliniplate 384-well flat-bottomed polystyrene multiwell plates (Thermo Labsystems). • (2) Assay buffer of (a) 100 mM Tris-HCl, pH 7.4, (b) 20 mM KCl, (c) 6 mM MgCl2. Stored at 4° C. • (3) 0.0812% (w/v) malachite green (M 9636, Sigma Aldrich Ltd., Poole, UK). Stored at room temperature. • (4) 2.32% (w/v) polyvinyl alcohol USP (P 1097, Sigma Aldrich Ltd, Poole, UK) in boiling water (see Comment 1), allowed to cool, and stored at room temperature. • (5) 5.72% (w/v) ammonium molybdate in 6 M hydrochloric acid. Stored at room temperature. • (6) 34% (w/v) sodium citrate. Stored at room temperature. • (7) ATP, disodium salt, special quality (519979, Boehringer Mannheim, Lewes, UK). Stored at 4° C. • (8) E. coli expressed yeast HSP90 protein, purified >95% (see, e.g., Panaretou et al., 1998) and stored at −80° C. as 10 μl aliquots containing 0.5 mg of protein. Method
The following protocol was used: • (1) On the day of use, prepare the malachite green reagent from the stock solutions. Mix (a) 2 parts of malachite green, (b) 1 part of polyvinyl alcohol, (c) 1 part of ammonium molybdate, and (d) 2 parts of water. Initially, the reagent is a dark brown colour, but after standing at room temperature for about 2 h, this becomes a golden yellow colour and is ready for use. • (2) For the high throughput screening assays, the test compounds are dissolved at 200 μM in 2.0% DMSO and contained in daughter plates derived from the chemical libraries. Transfer 5 μl of each sample from the daughter plate to each well of the assay plate using automated equipment (see Comment 3). This represents a final concentration in the well of 40 μM.

T1 sequence (P02829 whole entry, looked up): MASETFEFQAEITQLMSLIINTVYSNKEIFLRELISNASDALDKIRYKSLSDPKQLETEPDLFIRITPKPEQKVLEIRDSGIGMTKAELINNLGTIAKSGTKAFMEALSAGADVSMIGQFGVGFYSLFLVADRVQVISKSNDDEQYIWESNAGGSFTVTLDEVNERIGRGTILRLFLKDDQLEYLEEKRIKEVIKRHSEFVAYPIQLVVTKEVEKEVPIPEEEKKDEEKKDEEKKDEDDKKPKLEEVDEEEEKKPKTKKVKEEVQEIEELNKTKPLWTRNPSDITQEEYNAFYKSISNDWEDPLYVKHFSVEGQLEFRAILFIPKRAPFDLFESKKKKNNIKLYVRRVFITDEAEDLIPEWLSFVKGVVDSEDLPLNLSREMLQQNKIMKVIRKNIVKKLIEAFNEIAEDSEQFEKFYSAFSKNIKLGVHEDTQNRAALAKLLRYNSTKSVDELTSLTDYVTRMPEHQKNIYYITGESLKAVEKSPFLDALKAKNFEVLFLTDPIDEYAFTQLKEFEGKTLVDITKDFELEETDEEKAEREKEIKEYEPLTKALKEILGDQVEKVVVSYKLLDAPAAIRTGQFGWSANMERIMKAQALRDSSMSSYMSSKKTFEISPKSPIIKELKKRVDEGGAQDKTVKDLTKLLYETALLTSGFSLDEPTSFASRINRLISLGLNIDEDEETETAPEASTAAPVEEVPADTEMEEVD

Structure (SMILES)	IC50
COc1ccc(-c2c(-c3cc(Cl)c(O)cc3O)n[nH]c2C(=O)O)cc1 [Example 167, 5-(5-Chloro-2,4-dihydroxy-phenyl)-4-(4-methoxy-phenyl)-2H-pyrazole-3-carboxylic acid]	< 50 µM
CNC(=O)c1[nH]nc(-c2cc(Cl)c(O)cc2O)c1-c1ccc(OC)cc1 [Example 168, 5-(5-Chloro-2,4-dihydroxy-phenyl)-4-(4-methoxy-phenyl)-2H-pyrazole-3-carboxylic acid methylamide]	< 50 µM
COc1ccc(-c2c(-c3cc(Cl)c(O)cc3O)n[nH]c2C(=O)NC(C)C)cc1 [Example 170, 5-(5-Chloro-2,4-dihydroxy-phenyl)-4-(4-methoxy-phenyl)-2H-pyrazole-3-carboxylic acid isopropylamide]	< 50 µM
COc1ccc(-c2c(-c3cc(Cl)c(O)cc3O)n[nH]c2C(N)=O)cc1 [Example 172, 5-(5-Chloro-2,4-dihydroxy-phenyl)-4-(4-methoxy-phenyl)-2H-pyrazole-3-carboxylic acid amide]	< 50 µM

same assay, conditions: activity class; read-out: Hsp90 IC50

Structure (SMILES)	IC50
CC(=O)Nc1ccc(-c2n[nH]c(C)c2-c2ccc3c(c2)OCCO3)cc1 [Example 112]	> 10 µM
CC(=O)Nc1cccc(-c2n[nH]c(C)c2-c2ccc3c(c2)OCCO3)c1 [Example 113]	> 10 µM
CCOC(=O)c1ccc(-c2n[nH]c(C)c2-c2ccc3c(c2)OCCO3)cc1 [Example 114]	> 10 µM
Cc1[nH]nc(-c2ccc(C(=O)O)cc2)c1-c1ccc2c(c1)OCCO2 [Example 115]	> 10 µM
CCOC(=O)c1cccc(-c2n[nH]c(C)c2-c2ccc3c(c2)OCCO3)c1 [Example 116]	> 10 µM
Cc1[nH]nc(-c2ccc(C#N)cc2)c1-c1ccc2c(c1)OCCO2 [Example 117]	> 10 µM
Cc1[nH]nc(-c2cccc(C#N)c2)c1-c1ccc2c(c1)OCCO2 [Example 118]	> 10 µM
CCc1cc(-c2n[nH]c(C)c2-c2nc3ccccc3s2)c(O)cc1OCC(=O)NN [Example 119]	> 10 µM
CCc1cc(-c2n[nH]cc2-c2ccc3c(c2)OCO3)c(O)cc1OC [Example 120]	> 10 µM
Cc1[nH]nc(-c2ccc3c(c2O)OCO3)c1-c1ccc2c(c1)OCCO2 [Example 121]	> 10 µM
COc1ccc(-c2n[nH]cc2-c2ccc3c(c2)OCCO3)c(O)c1 [Example 122]	> 10 µM
Cc1[nH]nc(-c2ccc(OCC(=O)O)cc2O)c1-c1ccc(F)cc1 [Example 123]	> 10 µM
CCc1cc(-c2n[nH]cc2-c2nc(C)cs2)c(O)cc1OCc1cccc(C)c1 [Example 124]	> 10 µM
O=C(O)COc1ccc(-c2n[nH]cc2-c2ccc3c(c2)OCCO3)c(O)c1 [Example 125]	> 10 µM
CCCc1cc(-c2n[nH]cc2-c2ccccc2)c(O)cc1OC [Example 126]	> 10 µM
Cc1[nH]nc(-c2cc(Cl)c(O)cc2O)c1-c1ccccc1 [Example 127]	> 10 µM
CCc1cc(-c2n[nH]cc2-c2ccccc2)c(O)cc1OC [Example 128]	> 10 µM
Cc1nc(-c2c[nH]nc2-c2ccc(O)cc2O)cs1 [Example 129]	> 10 µM
CCOc1cc(O)c(-c2n[nH]cc2-c2nc(C)cs2)cc1CC [Example 130]	> 10 µM

Structure (SMILES)	IC50
CCc1cc(-c2n[nH]cc2-c2nc(C)cs2)c(O)cc1OC [Example 131]	> 10 µM
COc1ccc(-c2c(-c3ccc(O)c(C)c3O)n[nH]c2C)cc1 [Example 132]	> 10 µM
Cc1ccc(-n2cc(-c3c[nH]nc3-c3ccc(O)cc3O)cn2)cc1 [Example 136]	> 10 µM
Cc1[nH]nc(-c2ccc(O)cc2O)c1-c1cnn(-c2ccccc2)c1 [Example 137]	> 10 µM
Cc1[nH]nc(-c2cc(Cl)c(O)c(Cl)c2O)c1-c1ccccc1 [Example 138]	> 10 µM
CCCc1cc(-c2n[nH]cc2-c2ccc3c(c2)OCO3)c(O)cc1O [Example 140]	> 10 µM
CCc1cc(-c2n[nH]cc2-c2ccc(OC)cc2)c(O)cc1O [Example 141]	10 to 100 µM
Oc1ccc(-c2n[nH]c(C(F)(F)F)c2-c2ccc3c(c2)OCCO3)c(O)c1 [Example 142]	> 10 µM
Cc1ncc(-c2c(-c3ccc(O)cc3O)n[nH]c2C(F)(F)F)s1 [Example 143]	> 10 µM
Oc1ccc(-c2n[nH]c(C(F)(F)F)c2-c2ccccc2Cl)c(O)c1 [Example 144]	> 10 µM
CCc1cc(-c2n[nH]cc2-c2cnn(-c3ccccc3)c2)c(O)cc1O [Example 145]	> 10 µM
CCc1cc(-c2n[nH]c(C)c2-c2nc3ccccc3s2)c(O)cc1O [Example 146]	> 10 µM
COc1ccc(-c2c(-c3cc(Cl)c(F)cc3O)n[nH]c2C)cc1 [Example 147]	> 10 µM
Cc1[nH]nc(-c2cccc(Cl)c2Cl)c1-c1ccc2c(c1)OCCO2 [Example 150]	> 10 µM
COc1ccc(-c2c(C)n[nH]c2-c2cnc(N)nc2)cc1 [Example 151, 5-[4-(4-Methoxy-phenyl)-5-methyl-2H-pyrazol-3-yl]-pyrimidin-2-ylamine]	> 10 µM
COc1ccc(-c2c(C)n[nH]c2-c2cc(C)nc(N)n2)cc1 [Example 152, 4-[4-(4-Methoxy-phenyl)-5-methyl-2H-pyrazol-3-yl]-6-methyl-pyrimidin-2-ylamine]	> 10 µM
N#CCCCCOc1cccc(-c2c[nH]nc2-c2cc(Cl)c(O)cc2O)c1 [Example 155]	< 10 µM
COc1ccc(-c2ccc(-c3c[nH]nc3-c3cc(Cl)c(O)cc3O)cc2)cc1OC [Example 157]	< 10 µM

same assay, conditions: activity range, ATPase assay; read-out: ATPase IC50

Structure (SMILES)	IC50
Cc1[nH]nc(-c2ccc(C(N)=O)cc2)c1-c1ccc2c(c1)OCCO2 [Example 158]	> 50 µM
Cc1[nH]nc(-c2ccc(C(=O)NCC3CCCO3)cc2)c1-c1ccc2c(c1)OCCO2 (centres unmarked) [Example 159]	> 50 µM
Cc1[nH]nc(-c2ccc(C(=O)Nc3cccnc3)cc2)c1-c1ccc2c(c1)OCCO2 [Example 160]	> 50 µM
Cn1cc(-c2ccc(Br)cc2)c(-c2cc(Cl)c(O)cc2O)n1 [Example 161, 4-[4-(4-Bromo-phenyl)-1-methyl-1H-pyrazol-3-yl]-6-chloro-benzene-1,3-diol]	> 50 µM
CCc1cc(-c2nn(C)cc2-c2ccc(OC)c(OC)c2)c(O)cc1O [Example 162, 4-[4-(3,4-Dimethoxy-phenyl)-1-methyl-1H-pyrazol-3-yl]-6-ethyl-benzene-1,3-diol]	> 50 µM
Cc1c(-c2ccc(Br)cc2)c(-c2cc(Cl)c(O)cc2O)nn1C [Example 163]	> 50 µM
Cc1c(-c2ccccc2)c(-c2cc(Cl)c(O)cc2O)nn1C [Example 164, 4-Chloro-6-(1,5-dimethyl-4-phenyl-1H-pyrazol-3-yl)-benzene-1,3-diol]	> 50 µM
COc1ccc(-c2cn(C)nc2-c2cc(Cl)c(O)cc2O)cc1OC [Example 165]	> 50 µM
OCCn1cc(-c2ccc(Br)cc2)c(-c2cc(Cl)c(O)cc2O)n1 [Example 166, 4-[4-(4-Bromo-phenyl)-1-(2-hydroxy-ethyl)-1H-pyrazol-3-yl]-6-chloro-benzene-1,3-diol]	> 50 µM
COc1ccc(-c2c(-c3cc(Cl)c(O)cc3O)n[nH]c2C(=O)NCc2ccccc2)cc1 [Example 171, 5-(5-Chloro-2,4-dihydroxy-phenyl)-4-(4-methoxy-phenyl)-2H-pyrazole-3-carboxylic acid benzylamide]	< 50 µM
Oc1cc(O)c(-c2n[nH]cc2-c2ccc3c(c2)CCO3)cc1Cl [Example 173]	< 50 µM
Oc1cc(O)c(-c2n[nH]cc2-c2ccsc2)cc1Cl [Example 174]	< 50 µM

Source: US7247734B2 (Vernalis (Cambridge) Limited, priority 2001, dated 2007)
